One assay has as its system S. aureus 340. Briefly: MIC, broth microdilution. It counts as cell-based, Staphylococcus aureus. Conditions: for MIC: Staphylococcus aureus, 340, 24 h. The method, then: (§1) Antimicrobial activity of the compounds was studied by determination of minimal inhibitory concentrations (MIC) according to the NCCLS guidelines M7-A2 using the microbroth dilution methods. The bacteria strains were grown on trypticase soy agar (Becton Dickinson) at 37 °C for 24 h. Inocula were prepared in TCE (tryptone 0.1%, […], wt/vol) by ajusting the turbidity at 623 nm to obtain 1–3 10^5 CFU/mL.
(§2) Antimicrobial activities of the compounds were determined by using a broth microdilution method performed in sterile 96-well microplates. All compounds were solubilized in water at a concentration of 10 mM and were transferred to each microplate well in order to obtain a two-fold serial dilution in 100 µL of broth and 100 µL of inoculum containing 2–6 10^5 CFU of each bacterium were added to each well. Some wells were reserved for positive controls and inoculum viability.
(In general: In broth dilution the organism is exposed to a series of concentrations in liquid medium.)

The next assay relates to S. aureus ATCC 25923. Briefly: MIC, broth microdilution. Format: cell-based, Staphylococcus aureus. Conditions: ATCC strain; for MIC: Staphylococcus aureus, ATCC25923, 24 h. The protocol: as §1, §2
In a further assay the test system is S. intermedius 1051997. Briefly: MIC, broth microdilution. Format: cell-based, Staphylococcus intermedius. Conditions: 24 h; for MIC: Staphylococcus intermedius, 1051997, 24 h. The protocol:
as §1, §2

For the next assay, the system named is E. faecalis ATCC29212. Kind of assay: MIC, broth microdilution. Format: cell-based, Enterococccus faecalis. Conditions: ATCC strain; for MIC: Enterococcus faecalis, ATCC29212, 24 h, read-out: MIC E. faecalis 29212; for MIC E. faecalis 29212: 24 h. The method, then: as §1, §2
For the next assay, the system named is E. coli ATCC 25922. Briefly: MIC, broth microdilution. Format: cell-based, Escherichia coli. Conditions: ATCC strain; for MIC: Escherichia coli, ATCC25922, 24 h; for MIC E. coli 25922: 24 h. The protocol:
as §1, §2

Another assay relates to P. aeruginosa 1051575. Kind of assay: MIC, broth microdilution. It counts as cell-based, Pseudomonas aeruginosa. Conditions: 24 h; for MIC: Pseudomonas aeruginosa, 1051575, 24 h. The protocol: as §1, §2
For a further assay, the system named is P. aeruginosa ATCC 27853. Briefly: MIC, broth microdilution. It counts as cell-based, Pseudomonas aeruginosa. Conditions: ATCC strain; for MIC: Pseudomonas aeruginosa, ATCC27853, 24 h; for MIC P. aeruginosa 27853: 24 h. The protocol:
as §1, §2

The subject of assay [1] is Chinese hamster Ovary cells (CHO-K1). Kind of assay: Cytotoxicity assay (WST-1 / Neutral Red). Format: cell-based. Conditions: 24-h incubation; for IC50: Cricetulus griseus, 24 h. The protocol: The cytotoxic activities of compounds were assessed on Chinese hamster Ovary cells (CHO-K1) provided from ATCC-LGC Standards Sarl (Molsheim, France). Cells were maintained in Mc Coy’s 5A (CHO) medium supplemented with 10% bovine calf serum, 2 mM glutamine, and 100 U mL^−1/10 µg mL^−1 penicillin/streptomycin mixtures. For the cytotoxicity experiments, they were seeded in 96-well plates and incubated at 37 °C in humidified atmosphere containing 5% CO2 overnight, then concentrations of compounds were incorporated in triplicate cultures. After a 24-h incubation period at 37 °C, cells were submitted to three successive washes in phosphate buffer saline (PBS) and cell viability was evaluated by two different vital dyes: • i. A first set of cell cultures was incubated in PBS containing 10% WST-1 for 30 min at 37 °C, 5% CO2. Cell viability was evaluated by the assessment of WST-1 absorbance at 450 nm in a microplate spectrophotometer. • ii. A second set of cell cultures was placed into Neutral Red medium (50 μg mL^−1 Neutral Red in complete medium) and incubated for 3 h at 37 °C, 5% CO2. Then the Neutral Red medium was removed and the distaining solution (50% ethanol, 1% acetic acid, 49% distilled water; 50 µL per well) was added into the wells. The plates were shaken for 15–20 min at room temperature in the dark. Cell viability was evaluated by the assessment of absorbance at 540 nm in a microplate spectrophotometer.
Results were expressed as percentages of cell viability about the control (culture medium-only), which corresponded to 100% cell viability. Dose-response curves were calculated by non-linear regression analysis with TableCurve 2D software (V 5.0.1) (Systat Software Inc., San Jose, CA, USA). The Inhibitory Concentration 50% (IC50) was defined as the concentration of compounds that induced a 50% decrease of viable cells.
For orientation: Tetrazolium assays rely on reduction of a dye to a coloured formazan, in cell work by metabolically active cells.

Assay [2] has as its system Gram-positive and Gram-negative human and veterinary reference strains. Kind of assay: MIC against the panel of Gram-positive and Gram-negative reference strains. Conditions: for MIC: Homo sapiens, 24 h, over several or all of the tested pathogens. It counts as cell-based.
Text: Typically, cytotoxicity was expressed as the half maximal inhibitory concentration (IC50), defined as the concentration of a compound that decreases cell viability by 50% relative to untreated cells. This parameter provides a quantitative measure of a compound’s toxic potential toward mammalian cells. To facilitate data interpretation, we defined the Therapeutic Ratio (TR) as the ratio of IC50 (µg/mL) to MIC (µg/mL). This dimensionless parameter provides a straightforward measure of antibacterial selectivity, allowing direct comparison of cytotoxicity and antibacterial potency. A high TR value indicates compounds with strong antibacterial activity at concentrations far below their cytotoxic threshold, whereas a TR close to unity reflects poor selectivity and limited therapeutic potential. […] Within the Claramine A series, variations in IC50 strongly impacted TR values (Figure 5).
as §1, §2

The next assay deals with E. coli 1956. Kind of assay: MIC, broth microdilution. Conditions: for MIC: Escherichia coli, 1956, 24 h. Format: cell-based, Escherichia coli. The method, then: as §1, §2

In brackets after ≈: the same amount, converted by molar mass. Where two headings read alike, the source gives them in different places. Some results are limits rather than exact numbers.

The term MIC denotes the lowest concentration found to suppress growth. A word on the IC50: it is the concentration needed to halve the response being measured. Read a high IC50 as weaker potency in that assay. Consider `COC(=O)CCC(C)C1CCC2C3CCC4CC(NCCCN5CCN(CCCN)CC5)CCC4(C)C3CC(O)C12C` (stereo not drawn) [Claramine A18], for which the minimum inhibitory concentration (MIC) in the assay with S. aureus 340 turned out to be 7 µg/mL (≈ 11.9 µM); with S. aureus ATCC 25923 it was 15 µg/mL (≈ 25.5 µM); in the assay with S. intermedius 1051997, 4 µg/mL (≈ 6.79 µM); in the assay on E. faecalis ATCC29212, 30 µg/mL (≈ 50.9 µM); against E. coli ATCC 25922, 7 µg/mL (≈ 11.9 µM); in the assay on P. aeruginosa 1051575, 15 µg/mL (≈ 25.5 µM). Further, the MIC with P. aeruginosa ATCC 27853 is 15 µg/mL (≈ 25.5 µM); in assay [2] (read-out: MIC), below 15 µg/mL. In assay [1], this molecule yielded an IC50 of 135 µg/mL (≈ 229 µM). In addition, the “Therapeutic Ratio (TR)” value in assay [2] (IC50 (CHO)/MIC, over several of the tested pathogens) is above 5.
For the molecule `COC(=O)CCC(C)C1CCC2C3C(O)CC4CC(NCCCCCCN)CCC4(C)C3CC(O)C12C` (stereo not drawn) [Claramine B06], the MIC in the assay with S. aureus 340 amounted to 3 µg/mL (≈ 5.76 µM); against S. aureus ATCC 25923, 3 µg/mL (≈ 5.76 µM); with S. intermedius 1051997, 2 µg/mL (≈ 3.84 µM); in the assay with E. faecalis ATCC29212, 7 µg/mL (≈ 13.4 µM); in the assay on E. coli ATCC 25922 it was 7 µg/mL (≈ 13.4 µM); against P. aeruginosa 1051575, 13 µg/mL (≈ 25 µM). Also, the MIC in the assay with P. aeruginosa ATCC 27853 is 13 µg/mL (≈ 25 µM); in assay [2], 0.7 to 30 µg/mL (≈ 1.34 to 57.6 µM). Also, in [1], the “IC50 CHO” value amounted to 60 µg/mL (≈ 115 µM). Also, the IC50 in assay [1] is above 60 µg/mL.
Turning to `COC(=O)CCC(C)C1CCC2C3C(O)CC4CC(NCCCN5CCN(CCCN)CC5)CCC4(C)C3CC(O)C12C` (stereo not drawn) [Claramine B07], the MIC with S. aureus 340 was 8 µg/mL (≈ 13.2 µM); with S. aureus ATCC 25923 it was 4 µg/mL (≈ 6.61 µM); against S. intermedius 1051997 it was 4 µg/mL (≈ 6.61 µM); in the assay with E. faecalis ATCC29212, 8 µg/mL (≈ 13.2 µM); against E. coli ATCC 25922, 15 µg/mL (≈ 24.8 µM); in the assay with P. aeruginosa 1051575, 15 µg/mL (≈ 24.8 µM). For the same molecule, the minimal inhibitory concentration (MIC) against P. aeruginosa ATCC 27853 was 30 µg/mL (≈ 49.6 µM); in assay [2] it was 0.7 to 30 µg/mL (≈ 1.16 to 49.6 µM). In assay [1], the “IC50 CHO” value came to 80 µg/mL (≈ 132 µM). In assay [1], this molecule yielded an IC50 above 60 µg/mL.
In the case of `CC(C)OC(=O)CCC(C)C1CCC2C3C(O)CC4CC(NCCCNCCCCN)CCC4(C)C3CCC12C` (stereo not drawn) [Claramine C18], the MIC against S. aureus 340 was found to be 7 µg/mL (≈ 12.5 µM); in the assay with S. aureus ATCC 25923 it was 7 µg/mL (≈ 12.5 µM); against S. intermedius 1051997, 4 µg/mL (≈ 7.12 µM); in the assay on E. coli 1956, 14 µg/mL (≈ 24.9 µM). Further, the “MIC E. faecalis 29212” value against E. faecalis ATCC29212 came out at 7 µg/mL (≈ 12.5 µM). Besides, the “MIC E. coli 25922” value with E. coli ATCC 25922 is recorded as 14 µg/mL (≈ 24.9 µM). Besides, in the assay with P. aeruginosa 1051575, the “MIC P. aeruginosa 1051575” value worked out at 14 µg/mL (≈ 24.9 µM). Besides, in the assay on P. aeruginosa ATCC 27853, the “MIC P. aeruginosa 27853” value is reported as 14 µg/mL (≈ 24.9 µM). Further, it took 95 µg/mL (≈ 169 µM) to reach half-maximal inhibition in assay [1] (IC50).
Take `CCOC(=O)CCC(C)C1CCC2C3C(O)CC4CC(NCCCNCCCCNCCCN)CCC4(C)C3CCC12C` (stereo not drawn) [Claramine C21]: the MIC stood at 4 µg/mL (≈ 6.61 µM) against S. aureus 340; 4 µg/mL (≈ 6.61 µM) in the assay on S. aureus ATCC 25923; 4 µg/mL (≈ 6.61 µM) in the assay on S. intermedius 1051997; 2 µg/mL (≈ 3.31 µM) in the assay with E. faecalis ATCC29212; 30 µg/mL (≈ 49.6 µM) against E. coli 1956; 15 µg/mL (≈ 24.8 µM) with E. coli ATCC 25922. Also, the MIC in the assay on P. aeruginosa 1051575 and with P. aeruginosa ATCC 27853 was 15 µg/mL (≈ 24.8 µM) each time. In assay [1], this molecule yielded an IC50 of 45 µg/mL (≈ 74.4 µM).
With `CC(C)OC(=O)CCC(C)C1CCC2C3C(O)CC4CC(NCCCNCCCCN)CCC4(C)C3CCC12C` (stereo not drawn) [Claramine C27], in the assay on S. aureus 340 (24 h), the “MIC S. aureus 340” value turned out to be 7 µg/mL (≈ 12.5 µM). Besides, the “MIC S. aureus 25923” value against S. aureus ATCC 25923 (24 h) was found to be 7 µg/mL (≈ 12.5 µM). Further, the “MIC S. intermedius 1051997” value with S. intermedius 1051997 is reported as 7 µg/mL (≈ 12.5 µM). For the same molecule, the “MIC E. faecalis 29212” value in the assay with E. faecalis ATCC29212 worked out at 28 µg/mL (≈ 49.8 µM). Also, the “MIC E. coli 1956” value against E. coli 1956 (24 h) is given as 28 µg/mL (≈ 49.8 µM). For the same molecule, in the assay with E. coli ATCC 25922, the “MIC E. coli 25922” value turned out to be 56 µg/mL (≈ 99.7 µM). For the same molecule, the “MIC P. aeruginosa 1051575” value against P. aeruginosa 1051575 is 56 µg/mL (≈ 99.7 µM). Besides, the “MIC P. aeruginosa 27853” value with P. aeruginosa ATCC 27853 was 56 µg/mL (≈ 99.7 µM). Further, the “IC50 CHO” value in assay [1] is 100 µg/mL (≈ 178 µM).

(Values after PMC12693182, “Synthesis and QSAR Studies of Claramine Derivatives, a New Class of Broad-Spectrum Antimicrobial Agents” (Molecules, 2025).)
